Target: T1, rat NaPi-2b (Rattus norvegicus, UniProt Q9JJ09)
T1 construct: expressed in transfected cells; host or cells: Xenopus oocytes injected with cRNA
T1 sequence (Q9JJ09 1-695): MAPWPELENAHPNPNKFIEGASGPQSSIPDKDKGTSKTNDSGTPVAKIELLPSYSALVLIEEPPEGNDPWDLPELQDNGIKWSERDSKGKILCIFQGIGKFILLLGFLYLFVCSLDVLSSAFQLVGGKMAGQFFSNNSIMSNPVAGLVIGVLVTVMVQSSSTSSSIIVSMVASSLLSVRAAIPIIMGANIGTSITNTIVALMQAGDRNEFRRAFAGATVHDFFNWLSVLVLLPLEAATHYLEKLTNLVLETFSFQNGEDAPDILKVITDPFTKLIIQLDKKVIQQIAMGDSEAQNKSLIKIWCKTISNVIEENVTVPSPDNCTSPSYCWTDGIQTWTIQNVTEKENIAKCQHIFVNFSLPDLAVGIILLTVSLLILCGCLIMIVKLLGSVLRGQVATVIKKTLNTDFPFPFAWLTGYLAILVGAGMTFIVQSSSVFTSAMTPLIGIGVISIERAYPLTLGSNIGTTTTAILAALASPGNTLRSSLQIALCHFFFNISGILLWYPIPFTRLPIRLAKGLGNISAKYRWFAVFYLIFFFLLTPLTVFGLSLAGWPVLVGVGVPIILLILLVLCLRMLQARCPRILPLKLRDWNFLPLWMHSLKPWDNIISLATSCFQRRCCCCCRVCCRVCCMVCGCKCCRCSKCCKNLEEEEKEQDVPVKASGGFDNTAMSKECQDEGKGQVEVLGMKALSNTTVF
Assay: Sodium-dependent phosphate uptake of Xenopus oocytes which expressed NaPi-2b (32P)
Type: cell-based
Conditions: for IC50: Xenopus oocytes expressing rat NaPi-2b, 32P radioactive phosphorus, read-out: IC50 (phosphate uptake inhibitory activity)
How it was run: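 Read-out is 32P phosphate uptake into Xenopus oocytes expressing rat intestinal NaPi-2b (cRNA injection, 2-day culture). Inhibition at 300 μM and 100 μM was derived from a single inhibition curve and given as percent.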

Row | SMILES | inhibition at 300 µM (phosphate uptake, oocytes expressing rat NaPi-2b, 300 μM, determined from inhibition curve) [%] | IC50 [µM]
1 | CC(O)CN(Cc1cccc(C(=O)Nc2ccsc2C(=O)N/N=C/c2ccc(Cl)c(C(F)(F)F)c2)c1)CC(C)O (stereo not drawn) [Compound 993, 3-{[Bis-(2-hydroxy-propyl)-amino]-methyl}-N-[2-(4-chloro-3-trifluoromethyl-benzylidene-hydrazinocarbonyl)-thiophen-3-yl]-benzamide] | 39.7 | –
2 | O=C(Nc1ccc(Cl)cc1C(=O)N/N=C/c1ccc(F)cc1)c1cccc(CSCc2ccco2)c1 [Compound 681, N-[4-Chloro-2-(4-fluoro-benzylidene-hydrazinocarbonyl)-phenyl]-3-(furan-2-ylmethylsulfanylmethyl)-benzamide] | – | 25.9
3 | Cc1cccc(/C=N/NC(=O)c2cc(Br)ccc2NC(=O)c2ccncc2)c1 [Compound 168, N-[4-Bromo-2-(3-methyl-benzylidene-hydrazinocarbonyl)-phenyl]-isonicotinamide] | – | 4.84
4 | COCCOc1cc(NC(=O)c2cccc(CSCC(O)CO)c2)c(C(=O)N/N=C/c2ccc(Cl)c(C(F)(F)F)c2)cc1OCCOC (stereo not drawn) [Compound 1016, N-[2-(4-Chloro-3-trifluoromethyl-benzylidene-hydrazinocarbonyl)-4,5-bis-(2-methoxy-ethoxy)-phenyl]-3-(2,3-dihydroxy-propylsulfanylmethyl)-benzamide] | – | 9.23
5 | COc1ccc(C(=O)Nc2ccccc2C(=O)N/N=C/c2ccco2)cc1OC [Compound 21, N-[2-(Furan-2-ylmethylene-hydrazinocarbonyl)-phenyl]-3,4-dimethoxy-benzamide] | – | 21.5
6 | COc1ccc(NC(=O)c2cccc(CSCC(O)CO)c2)c(C(=O)N/N=C/c2cccc(F)c2)c1 (stereo not drawn) [Compound 1017, 3-(2,3-Dihydroxy-propylsulfanylmethyl)-N-[2-(3-fluoro-benzylidene-hydrazinocarbonyl)-4-methoxy-phenyl]-benzamide] | – | 0.87
7 | O=C(Nc1ccc(Br)cc1C(=O)N/N=C/c1cccc(F)c1)c1ccc(F)cc1 [Compound 105, N-[4-Bromo-2-(3-fluoro-benzylidene-hydrazinocarbonyl)-phenyl]-4-fluoro-benzamide] | – | 7.29
8 | CCN(CC)CCN(C)Cc1cccc(C(=O)Nc2ccc(OCCCCF)cc2C(=O)N/N=C/c2ccc(C)c(C)c2)c1 [Compound 1059, 3-{[(2-Diethylamino-ethyl)-methyl-amino]-methyl}-N-[2-(3,4-dimethyl-benzylidene-hydrazinocarbonyl)-4-(4-fluoro-butoxy)-phenyl]-benzamide] | – | 0.43
9 | O=C(Nc1ccc(Br)cc1C(=O)N/N=C/c1ccc(Cl)c(C(F)(F)F)c1)c1ccc(CNCCCN(CCO)CCO)cc1 [Compound 302, 4-({3-[Bis-(2-hydroxy-ethyl)-amino]-propylamino}-methyl)-N-[4-bromo-2-(4-chloro-3-trifluoromethyl-benzylidene-hydrazinocarbonyl)-phenyl]-benzamide] | – | 1.12
10 | CN(CCCCCCN(C)Cc1cccc(C(=O)Nc2ccc(Cl)cc2C(=O)N/N=C/c2ccc(Cl)c(C(F)(F)F)c2)c1)Cc1cccc(C(=O)Nc2ccc(Cl)cc2C(=O)N/N=C/c2ccc(Cl)c(C(F)(F)F)c2)c1 [Compound 690, N1-[4-Chloro-2-({2-[(E)-1-(4-chloro-3-trifluoromethyl-phenyl)methylidene]hydrazino}carbonyl)phenyl)-3-{[{6-[(3-{[4-chloro-2-({2-[(E)-1-(4-chloro-3-trifluoromethyl-phenyl)methylidene]hydrazino}-carbonyl}anilino}carbonyl}benzyl}(methyl)amino)hexyl)(methyl)amino]-methyl]benzamide] | – | 88
11 | CCOCCN(CCOCC)Cc1ccc(C(=O)Nc2ccc(Br)cc2C(=O)N/N=C/c2ccc(C)c(C)c2)cc1 [Compound 733, 4-{[Bis-(2-ethoxy-ethyl)-amino]-methyl}-N-[4-bromo-2-(3,4-dimethyl-benzylidene-hydrazinocarbonyl)-phenyl]-benzamide] | – | < 10
12 | O=C(Nc1ccc(Br)cc1C(=O)N/N=C/c1cccc(O)c1)c1ccc(F)cc1 [Compound 109, N-[4-Bromo-2-(3-hydroxy-benzylidene-hydrazinocarbonyl)-phenyl]-4-fluoro-benzamide] | – | 6.18
13 | O=C(Nc1ccc(Br)cc1C(=O)N/N=C/c1ccc(F)cc1)c1cccc(CSc2ccncc2)c1 [Compound 196, N-[4-Bromo-2-(4-fluoro-benzylidene-hydrazinocarbonyl)-phenyl]-3-(pyridin-4-ylsulfanylmethyl)-benzamide] | – | 0.61
14 | Cc1ccc(/C=N/NC(=O)c2cc(Cl)ccc2NC(=O)c2cccc(CSCc3ccco3)c2)cc1C [Compound 683, N-[4-Chloro-2-(3,4-dimethyl-benzylidene-hydrazinocarbonyl)-phenyl]-3-(furan-2-ylmethylsulfanylmethyl)-benzamide] | – | < 3
15 | CCN(CC)CCN(C)Cc1cccc(C(=O)Nc2sccc2C(=O)N/N=C/c2ccc(C)c(C)c2)c1 [Compound 664, 3-{[(2-Diethylamino-ethyl)-methyl-amino]-methyl}-N-[3-(3,4-dimethyl-benzylidene-hydrazinocarbonyl)-thiophen-2-yl]-benzamide] | – | 15.1
16 | CCN(CC)CCN(C)Cc1cccc(C(=O)Nc2ccc(I)cc2C(=O)N/N=C/c2cccc(C)c2)c1 [Compound 474, 3-{[(2-Diethylamino-ethyl)-methyl-amino]-methyl}-N-[4-iodo-2-(3-methyl-benzylidene-hydrazinocarbonyl)-phenyl]-benzamide] | – | < 3
17 | COc1ccc(NC(=O)c2ccc(OC)c(OC)c2)c(C(=O)N/N=C/c2cccc(C)c2)c1 [Compound 143, 3,4-Dimethoxy-N-[4-methoxy-2-(3-methyl-benzylidene-hydrazinocarbonyl)-phenyl]-benzamide] | – | 5.88

Now from value to compound:

Row | inhibition at 300 µM (phosphate uptake, oocytes expressing rat NaPi-2b, 300 μM, determined from inhibition curve) [%] | IC50 [µM] | SMILES
18 | – | 13.1 | COc1ccc(/C=N/NC(=O)c2cc(OCCN3CCCCC3)ccc2NC(=O)c2cccc(CSCCO)c2)cc1 [Compound 1045, 3-(2-Hydroxy-ethylsulfanylmethyl)-N-[2-(4-methoxy-benzylidene-hydrazinocarbonyl)-4-(2-piperidin-1-yl-ethoxy)-phenyl]-benzamide]
19 | – | 2.1 | Cc1cccc(/C=N/NC(=O)c2cc(Br)ccc2NC(=O)c2ccc(CN3CCC(O)CC3)cc2)c1 [Compound 326, N-[4-Bromo-2-(3-methyl-benzylidene-hydrazinocarbonyl)-phenyl]-4-(4-hydroxy-piperidin-1-ylmethyl)-benzamide]
20 | – | 1.45 | O=C(Nc1ccc(Cl)cc1C(=O)N/N=C/c1ccc(F)cc1)c1cccc(CN2CCC(N3CCCCC3)CC2)c1 [Compound 369, 3-[1,4′]Bipiperidinyl-1′-ylmethyl-N-[4-chloro-2-(4-fluoro-benzylidene-hydrazinocarbonyl)-phenyl]-benzamide]
21 | – | 5.12 | O=C(Nc1ccc(Br)cc1C(=O)N/N=C/c1ccc(F)cc1)c1ccc(CN2CCC(O)CC2)cc1 [Compound 327, N-[4-Bromo-2-(4-fluoro-benzylidene-hydrazinocarbonyl)-phenyl]-4-(4-hydroxy-piperidin-1-ylmethyl)-benzamide]
22 | – | < 3 | CCN(CC)CCNCc1cccc(C(=O)Nc2scc(C)c2C(=O)N/N=C/c2ccc(Cl)c(C(F)(F)F)c2)c1 [Compound 585, N-[3-(4-Chloro-3-trifluoromethyl-benzylidene-hydrazinocarbonyl)-4-methyl-thiophen-2-yl]-3-[(2-diethylamino-ethylamino)-methyl]-benzamide]
23 | – | 36.1 | Cc1ccc(/C=N/NC(=O)c2c(NC(=O)c3cccc(CN4CCC(CO)CC4)c3)sc3c2CCC3)cc1 [Compound 817, 3-(4-Hydroxymethyl-piperidin-1-ylmethyl)-N-[3-(4-methyl-benzylidene-hydrazinocarbonyl)-5,6-dihydro-4H-cyclopenta[b]thiophen-2-yl]-benzamide]
24 | – | < 3 | O=C(Nc1ccc(I)cc1C(=O)N/N=C/c1ccc(Cl)c(C(F)(F)F)c1)c1cccc(CN2CCC(N3CCCCC3)CC2)c1 [Compound 487, 3-[1,4′]Bipiperidinyl-1′-ylmethyl-N-[2-(4-chloro-3-trifluoromethyl-benzylidene-hydrazinocarbonyl)-4-iodo-phenyl]-benzamide]
25 | – | 4.71 | Cc1ccc(/C=N/NC(=O)c2cc(Br)ccc2NC(=O)c2ccc(CN3CCN(CCO)CC3)cc2)cc1C [Compound 316, N-[4-Bromo-2-(3,4-dimethyl-benzylidene-hydrazinocarbonyl)-phenyl]-4-[4-(2-hydroxy-ethyl)-piperazin-1-ylmethyl]-benzamide]
26 | – | < 3 | Cc1ccc(/C=N/NC(=O)c2cc(Cl)ccc2NC(=O)c2ccc(CN(C)CCO)cc2)cc1 [Compound 415, N-[4-Chloro-2-(4-methyl-benzylidene-hydrazinocarbonyl)-phenyl]-4-{[(2-hydroxy-ethyl)-methyl-amino]-methyl}-benzamide]
27 | – | 9.76 | O=C(Nc1ccc(Br)cc1C(=O)N/N=C/c1ccc(F)cc1)c1ccc(CN2CCN(CCO)CC2)cc1 [Compound 319, N-[4-Bromo-2-(4-fluoro-benzylidene-hydrazinocarbonyl)-phenyl]-4-[4-(2-hydroxy-ethyl)-piperazin-1-ylmethyl]-benzamide]

Source: patent US8134015B2, “Compound inhibiting in vivo phosphorous transport and medicine containing the same” (Kyowa Hakko Kirin Co., Ltd., priority 2003, dated 2012)
